Experimental data taken from patent US20250249110A1, “ANTIMICROBIAL PEPTIDE DERIVATIVE AND USE THEREOF” (SICHUAN UNIVERSITY, priority 2016, published 2025).
Where a SMILES comes first, the peptide text is derived from it. The star is where a group is joined. Succinyl(4-O-cholesteryl) = CC(C)CCC[C@@H](C)[C@H]1CC[C@H]2[C@@H]3CC=C4C[C@@H](OC(=O)CCC(=O)*)CC[C@]4(C)[C@H]3CC[C@]12C

Columns and labels:
splenic lymphocytes = assay: Cellular immune response of splenic lymphocytes (intracellular cytokine flow cytometry); type: cell-based, mouse; details: spleen of immunized mice, OVA restimulation
Source text: […]

DC cells = assay: Uptake of OVA antigen by dendritic cells (flow cytometry); type: cell-based, mouse; details: 3 h
Method: DC cells are the most powerful antigen presenting cells in the body, which can absorb foreign substances, process and present them to T cells to stimulate immune response. DC cells play an important role in T cell immune response and production of T cell dependent antibody. We examined the effect of DP7-C on DC presenting antigen by flow cytometry.
The experimental steps are as follows: • (1) Isolate C57/BL mouse primary bone marrow cells and incubate in the induced medium containing 10 ng/ml of GM-CSF and 10 ng/ml of IL-4 for 5 days. • (2) Add the OVA protein markers FITC, OVA or DP7-C/OVA into DC cell culture, mix well and incubate for 3 h. • (3) Collect the stimulated DC cells, wash with PBS twice, re-suspend the cells in 300 μL of PBS, and perform flow cytometry.

mouse PBMC = assay: Immune-related cytokine expression by Q-PCR after PBMC stimulation; type: cell-based
Method: In order to determine the changes of cytokines in mouse PBMC after DP7-C stimulation, the isolated mouse PBMC is diluted to 1×10^6 cells/mL and added to a 6-well plate at 2 ml/well, in which the stimulation concentration of DP7-C is 200 μg/ml and the stimulation time is 4 h. After stimulation, the cells are collected and stored in a −80° C. refrigerator. Meanwhile, in order to verify whether DP7-C can reverse LPS-induced inflammatory reaction, an experiment is set up to stimulate PBMC together with LPS: PBMC is diluted to 1×10^6 cells/ml and added to a 6-well plate at 2 mL/well in which the stimulation concentration of DP7-C is 200 μg/mL; after 1 h, stimulated by LPS for 4 h, and cells are collected and stored in −80° C. refrigerator. After all samples are collected, the following steps are performed, including centrifugation, washing, total RNA extraction, reverse transcription and real-time quantitative PCR.

[1] = test system: C26 subcutaneously implanted tumor; assay: Subcutaneously implanted tumor model of C26 mouse colon cancer; type: in vivo
Method: In order to further characterize the application potential of DP7-C micelles in tumor therapy, we established a subcutaneously implanted tumor model of C26 mouse colon cancer and used DP7-C to transmit anti-VEGF siRNA therapeutic genes for therapeutic research. • (1) On day 0, female BALB/c mice aged 6-8 weeks are subcutaneously inoculated with 0.1 mL of cell suspension (containing about 1.5×10^6 C26 cells). • (2) On day 8, when the tumor is palpable, mice are randomly divided into 4 groups, 8 mice for each group, and are labeled. • (3) Four groups of mice are intratumorally injected with 10 doses of normal saline (blank control group), blank DP7-C micelle (25 μg), DP7-C/no-sense control siRNA complex (25 μg/5 μg) or DP7-C/VEGF siRNA complex (25 μg/5 μg) respectively. • (4) On day 20, when the mice in the control group are already very weak, all the mice are killed by cervical dislocation; the tumor tissues in the abdominal cavity as well as the heart, liver, spleen, lung and kidney tissues are immediately collected, weighed and analyzed. The ascites of each group of mice is also collected and measured, and CD31 immunohistochemical staining is performed on tumor tissues of each experimental group. The collected heart, liver, spleen, lung and kidney tissues are analyzed by HE staining.

[2] = test system: Staphylococcus aureus 33591; assay: Intra-abdominally infected mouse model; type: in vivo; details: intravenous administration
Method: The anti-infection activity of DP7-C is determined by the intra-abdominally infected models. […]
The experimental steps are as follows: • (1) Activate Staphylococcus aureus 33591 with MHB the day before the experiment, wash the activated strains twice with normal saline on the day of the experiment, and determine the concentration of bacterial liquid for later use. • (2) To establish an abdominally infected mouse model, intraperitoneally inject the bacterial solution of 1.5×10^8 cfu/0.5 mL into each mouse. • (3) Intravenously inject the drug by group after one hour of infection, 0.1 mL/mouse. • (4) 24 h later, intraperitoneally inject 5 mL of normal saline into the mouse, gently massage the abdomen, kill the mouse and disinfect with 75% alcohol. After 5 min, scissor the abdominal cavity epithelium, make a small opening in the abdominal cavity, draw ascites as much as possible from the opening with a 1 ml syringe, and then transfer to a sterile EP tube for mixing. • (5) Dilute with normal saline at a dilution of, for example, 10×, 100×, 1000× and 10000×; take three bacterial solutions with suitable concentrations, 20 μL each, coat the MHA plate and incubate in a bacteria incubator overnight. • (6) Select a plate with 20-200 colonies and convert and calculate the amount of bacteria per milliliter in 5 milliliters of ascites.

With `CC[C@H](C)[C@H](NC(=O)[C@H](CCCNC(=N)N)NC(=O)[C@H](Cc1c[nH]c2ccccc12)NC(=O)[C@H](CCC(N)=O)NC(=O)[C@@H](NC(=O)CCC(=O)O[C@H]1CC[C@@]2(C)C(=CC[C@H]3[C@@H]4CC[C@H]([C@H](C)CCCC(C)C)[C@@]4(C)CC[C@@H]32)C1)C(C)C)C(=O)N[C@@H](CCCNC(=N)N)C(=O)N[C@H](C(=O)N[C@@H](C)C(=O)N[C@H](C(=O)N[C@H](C(=O)N[C@@H](CCCNC(=N)N)C(=O)N[C@@H](CCCCN)C(N)=O)[C@@H](C)CC)C(C)C)C(C)C` [DP7-C, Chol-suc-VQWRIRVAVIRK-NH2] ({Succinyl(4-O-cholesteryl)}-VQWRIRVAVIRK-NH2) the “percentage of CD4+/IFN-γ+, CD8+/IFN-γ+ and CD4+/IL-17A+ cells” value (splenic lymphocytes) was “increased”, the “uptake of antigen by DC cells” value (DC cells; 2.5 μg/ml) was “significantly increase” and the “uptake of OVA by DC cells” value (DC cells; 40 μg/ml) was “slightly enhanced”. The “gene expression of IL-1β, MCP-1 and TNF-α” value (mouse PBMC; 200 μg/mL DP7-C together with LPS) was “significantly reduced”, the “expression of IL-1, IL-6, MCP-1, M-CSF, TNF-α and other cytokines related to immune activation” value (mouse PBMC; 200 μg/ml, 4 h) was “greatly increased” and the “HE staining of major organ tissues” value ([1]; heart, liver, spleen, lung, kidney) was “no significant pathological changes”. For the same compound, the “average tumor weight (unit mm^3)” value ([1]; intratumoral injection, 10 doses) was 357.64±30.56 mm^3, the “average colony forming unit (CFU) of Staphylococcus aureus” value ([2]; DP7-C 1 mg/kg, VAN 20 mg/kg, vs NS group, p<0.01) was “significantly lower than those in NS group” and the “antibacterial effect compared with positive drug group” value ([2]; no statistical difference) was “basically the same as that of the positive drug group”.
